From ChEMBL document CHEMBL5512668, “Macrocyclic Azapeptide Nitriles: Structure-Based Discovery of Potent SARS-CoV-2 Main Protease Inhibitors as Antiviral Drugs” (J Med Chem, 2024)

Assays:
[1] = target: T1, Replicase polyprotein 1ab (Severe acute respiratory syndrome coronavirus 2, UniProt P0DTD1)
[2] = target: Replicase polyprotein 1ab (Severe acute respiratory syndrome coronavirus 2) (UniProt P0DTD1); details: dose 1.0 µM, time 65.0 min
[3] = target: T1, Replicase polyprotein 1ab; remark: listed apart in the source
Procathepsin L = Procathepsin L (Homo sapiens, UniProt P07711); assay: Inhibition of human cathepsin L using Z-Phe-Arg-pNA as substrate incubated for 60 mins
Procathepsin L, sequence (P07711 whole entry): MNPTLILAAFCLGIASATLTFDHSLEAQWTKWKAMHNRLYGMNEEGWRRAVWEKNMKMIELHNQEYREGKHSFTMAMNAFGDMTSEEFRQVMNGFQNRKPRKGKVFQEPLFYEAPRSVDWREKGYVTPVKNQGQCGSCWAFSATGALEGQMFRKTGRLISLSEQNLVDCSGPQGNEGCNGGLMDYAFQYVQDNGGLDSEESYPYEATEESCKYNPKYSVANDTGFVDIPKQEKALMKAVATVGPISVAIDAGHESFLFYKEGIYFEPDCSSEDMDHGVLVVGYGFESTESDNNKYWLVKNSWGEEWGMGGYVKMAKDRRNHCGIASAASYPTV

| Structure (SMILES) | IC50 [1] [nM] | other results |
| --- | --- | --- |
| COc1cccc2[nH]c(C(=O)N[C@@H](Cc3ccccc3)C(=O)N(C)N(C#N)Cc3ccc(Cl)cc3)cc12 | 23 | – |
| CN(C(=O)[C@H](Cc1ccccc1)NC(=O)OCc1ccccc1)N(C#N)Cc1cccc(F)c1 | 142 | – |
| CN(C(=O)[C@H](Cc1ccccc1)NC(=O)COc1cccc(F)c1Br)N(C#N)Cc1ccc(Cl)cc1 | 1020 | – |
| COc1ccc(NCC(=O)N[C@@H](Cc2ccccc2)C(=O)N(C)N(C#N)Cc2ccc(Cl)cc2)c(Cl)c1 | 673 | – |
| CN(C(=O)[C@H](Cc1ccccc1)NC(=O)OCc1ccccc1)N(C#N)Cc1ccc(Cl)cc1 | 260 | – |
| CN(C(=O)[C@H](Cc1ccccc1)NC(=O)C(C)(C)Oc1ccc(Cl)cc1Cl)N(C#N)Cc1ccc(Cl)cc1 | – | inhibition [2]: 17% |
| CN1C(=O)[C@H](Cc2ccccc2)N(C(=O)COc2ccc(Cl)cc2Cl)CCCCCOc2ccc(F)cc2CN1C#N | 48 | – |
| CN(C(=O)[C@H](Cc1ccccc1)NC(=O)[C@@H](NC(=O)c1cccs1)C(C)(C)C)N(C#N)Cc1ccc(Cl)cc1 | 19 | Ki [3]: 13.3 nM; Ki (Procathepsin L): 179 nM |
| CN1C(=O)[C@H](Cc2ccccc2)N(C(=O)CNC(=O)c2cccs2)CC2(CC2)COc2c(Cl)cccc2CN1C#N | 30 | Ki [3]: 21.1 nM |
| CN(C(=O)[C@H](Cc1ccccc1)NC(=O)COc1cccc(Cl)c1)N(C#N)Cc1ccc(Cl)cc1 | 1060 | – |
| CN(C(=O)[C@H](Cc1ccccc1)NC(=O)[C@@H](Nc1ccc([N+](=O)[O-])cc1[N+](=O)[O-])C(C)(C)C)N(C#N)Cc1ccc(Cl)cc1 | 2250 | – |
| CN(C(=O)[C@H](Cc1ccccc1)NC(=O)c1cc2cc(Cl)ccc2[nH]1)N(C#N)Cc1ccc(Cl)cc1 | 77 | – |
| CN(C(=O)[C@H](Cc1ccccc1)NC(=O)OCc1ccccc1)N(C#N)Cc1ccsc1 | 416 | – |
| CN(C(=O)[C@H](Cc1ccccc1)NC(=O)COc1cccc2ccccc12)N(C#N)Cc1ccc(Cl)cc1 | 1060 | – |
| CN(C(=O)[C@H](Cc1ccccc1)NC(=O)CNc1ccc(F)cc1F)N(C#N)Cc1ccc(Cl)cc1 | 952 | – |
| CN(C(=O)[C@H](Cc1ccccc1)NC(=O)[C@@H](NC(=O)C(F)(F)F)C(C)(C)C)N(C#N)Cc1ccc(Cl)cc1 | 33 | – |
| COc1cccc(NC2(C(=O)N[C@@H](Cc3ccccc3)C(=O)N(C)N(C#N)Cc3ccc(Cl)cc3)CCCC2)c1 | – | inhibition [2]: 12% |
| CN(C(=O)[C@H](Cc1cccc(Cl)c1)NC(=O)[C@@H](NC(=O)c1cccs1)C(C)(C)C)N(C#N)Cc1cccc(Cl)c1F | 9 | Ki (Procathepsin L): 163 nM |
| CN(C(=O)[C@H](Cc1ccccc1)NC(=O)OCc1ccccc1)N(C#N)Cc1cccc(Br)c1 | 86 | – |
| CCCS(=O)(=O)N[C@H](C(=O)N[C@@H](Cc1ccccc1)C(=O)N(C)N(C#N)Cc1ccc(Cl)cc1)C(C)(C)C | 156 | – |
| CN(C(=O)[C@H](Cc1ccccc1)NC(=O)OCc1ccccc1)N(C#N)Cc1cccc(Cl)c1 | 88 | – |
| CN(C(=O)[C@H](Cc1ccc(Cl)cc1)NC(=O)[C@@H](NC(=O)c1cccs1)C(C)(C)C)N(C#N)Cc1cccc(Cl)c1F | – | inhibition [2]: 6% |
| CN(C(=O)[C@H](Cc1ccccc1)NC(=O)[C@@H](NC(=O)c1cccs1)C(C)(C)C)N(C#N)Cc1cccc(Cl)c1F | 15 | Ki (Procathepsin L): 93.5 nM |
| CN(C(=O)[C@H](Cc1cccc(F)c1)NC(=O)[C@@H](NC(=O)c1cccs1)C(C)(C)C)N(C#N)Cc1cccc(Cl)c1F | 4 | Ki (Procathepsin L): 178 nM |
| CN(C(=O)[C@H](Cc1ccccc1)NC(=O)OCc1ccccc1)N(C#N)Cc1ccco1 | 206 | – |
| CC(C)c1ccc(OCC(=O)N[C@@H](Cc2ccccc2)C(=O)N(C)N(C#N)Cc2ccc(Cl)cc2)cc1 | – | inhibition [2]: 21% |

| Structure (SMILES) | IC50 [1] [nM] | other results |
| --- | --- | --- |
| CN1C(=O)[C@H](Cc2ccccc2)N(C(=O)COc2ccc(Cl)cc2Cl)CCCOc2ccc(F)cc2CN1C#N | 25 | – |
| CN(C(=O)[C@H](Cc1ccccc1)NC(=O)[C@@H]1Cc2ccccc2CN1C(=O)c1cccs1)N(C#N)Cc1ccc(Cl)cc1 | – | inhibition [2]: 21% |
| CN(C(=O)[C@H](Cc1ccccc1)NC(=O)COc1ccc(F)cc1)N(C#N)Cc1ccc(Cl)cc1 | 1220 | – |
| CN(C(=O)[C@H](Cc1ccccc1)NC(=O)OCc1ccccc1)N(C#N)Cc1ccc([N+](=O)[O-])cc1 | 210 | – |
| CN(C(=O)[C@H](Cc1ccccc1)NC(=O)OCc1ccccc1)N(C#N)Cc1ccc(Br)c(Cl)c1 | 192 | – |
| CN(C(=O)[C@H](Cc1ccccc1)NC(=O)OCc1ccccc1)N(C#N)Cc1c(F)cc(Br)cc1F | 81 | – |
| CN(C(=O)[C@H](Cc1ccccc1)NC(=O)OCc1ccccc1)N(C#N)CC1CCNC1=O (stereo partly specified) | – | inhibition [2]: 21% |
| CN(C(=O)[C@H](Cc1ccccc1)NC(=O)OCc1ccccc1)N(C#N)Cc1ccc(Br)cc1F | 104 | – |
| CN(C(=O)[C@H](Cc1ccccc1)NC(=O)CNc1ccc(F)c(F)c1)N(C#N)Cc1ccc(Cl)cc1 | 343 | – |
| CN(C(=O)[C@H](Cc1ccccc1Cl)NC(=O)[C@@H](NC(=O)c1cccs1)C(C)(C)C)N(C#N)Cc1cccc(Cl)c1F | 26 | Ki (Procathepsin L): 56.1 nM |
| COc1ccc(OC)c(CN(C#N)N(C)C(=O)[C@H](Cc2ccccc2)NC(=O)OCc2ccccc2)c1 | 826 | – |
| CN(C(=O)[C@H](Cc1ccccc1)NC(=O)[C@@H](NC(=O)C1CCCC1)C(C)(C)C)N(C#N)Cc1ccc(Cl)cc1 | 32 | Ki [3]: 23 nM; Ki (Procathepsin L): 344 nM |
| CN(C(=O)[C@H](Cc1ccccc1)NC(=O)OCc1ccccc1)N(C#N)Cc1cc(Cl)ccc1F | 119 | – |
| CN(C(=O)[C@H](Cc1ccccc1)NC(=O)COc1ccc(F)c(F)c1)N(C#N)Cc1ccc(Cl)cc1 | 1150 | – |
| CN(C(=O)[C@H](Cc1ccccc1)NC(=O)COc1ccc(Cl)cc1)N(C#N)Cc1ccc(Cl)cc1 | 1300 | – |
| CN(C(=O)[C@@H]1Cc2ccccc2CN1C(=O)OCc1ccccc1)N(C#N)Cc1ccc(Cl)cc1 | – | inhibition [2]: 26% |
| CN(C(=O)[C@H](Cc1ccccc1)NC(=O)OCc1ccccc1)N(C#N)Cc1cccc(Cl)c1F | 35 | – |
| CN(C(=O)[C@H](Cc1ccccc1)NC(=O)CNc1c(F)cccc1F)N(C#N)Cc1ccc(Cl)cc1 | 987 | – |
| COc1cccc(OCC(=O)N[C@@H](Cc2ccccc2)C(=O)N(C)N(C#N)Cc2ccc(Cl)cc2)c1 | 1230 | – |
| CN(C(=O)[C@H](Cc1ccccc1)NC(=O)C1(Oc2ccc(Cl)cc2Cl)CCCCC1)N(C#N)Cc1ccc(Cl)cc1 | – | inhibition [2]: 7% |
| CN(C(=O)[C@H](Cc1ccccc1)NC(=O)OCc1ccccc1)N(C#N)Cc1ccc(F)cc1 | 294 | – |
| CN(C(=O)[C@@H](NC(=O)[C@@H](NC(=O)c1cccs1)C(C)(C)C)C(c1ccccc1)c1ccccc1)N(C#N)Cc1cccc(Cl)c1F | – | inhibition [2]: 10% |
| COc1ccc(CN(C#N)N(C)C(=O)[C@H](Cc2ccccc2)NC(=O)OCc2ccccc2)cc1 | 345 | – |
| CN(C(=O)[C@H](Cc1ccccc1)NC(=O)COc1ccc(Cl)cc1Cl)N(C#N)Cc1ccc(Cl)cc1 | 1820 | – |
| CN(C(=O)[C@H](Cc1ccccc1)NC(=O)OCc1ccccc1)N(C#N)Cc1ccccc1Br | 188 | – |
| CN(C(=O)[C@H](Cc1ccccc1)NC(=O)[C@@H]1CCCN1C(=O)c1cccs1)N(C#N)Cc1ccc(Cl)cc1 | – | inhibition [2]: 13% |

| Structure (SMILES) | IC50 [1] [nM] | other results |
| --- | --- | --- |
| CN(C(=O)[C@H](Cc1ccccc1)NC(=O)CCc1ccc(F)c(F)c1)N(C#N)Cc1ccc(Cl)cc1 | 1420 | – |
| CN(C(=O)[C@H](Cc1ccccc1)NC(=O)COc1ccc2c(c1)NC(=O)CC2)N(C#N)Cc1ccc(Cl)cc1 | 960 | – |
| CN(C(=O)[C@@H]1Cc2ccccc2CN1C(=O)COc1ccc(Cl)cc1Cl)N(C#N)Cc1ccc(Cl)cc1 | – | inhibition [2]: 11% |
| Cc1csc(C(=O)N[C@H](C(=O)N[C@@H](Cc2ccccc2)C(=O)N(C)N(C#N)Cc2ccc(Cl)cc2)C(C)(C)C)c1 | 71 | – |
| CN(C(=O)[C@@H]1CCCN1C(=O)[C@@H](NC(=O)c1cccs1)C(C)(C)C)N(C#N)Cc1cccc(Cl)c1F | – | inhibition [2]: 5% |
| COc1c(Cl)cccc1CN(C#N)N(C)C(=O)[C@H](Cc1ccccc1)NC(=O)OCc1ccccc1 | 425 | – |
| CN(C(=O)[C@H](Cc1ccccc1)NC(=O)OCc1ccccc1)N(C#N)Cc1ccc(Br)c(Cl)c1F | 125 | – |
| COc1ccc(Cl)c(F)c1CN(C#N)N(C)C(=O)[C@H](Cc1ccccc1)NC(=O)OCc1ccccc1 | 392 | – |
| CN(C(=O)[C@H](Cc1ccc(F)cc1)NC(=O)[C@@H](NC(=O)c1cccs1)C(C)(C)C)N(C#N)Cc1cccc(Cl)c1F | 25 | – |
| CN(C(=O)[C@H](Cc1ccccc1)NC(=O)OCc1ccccc1)N(C#N)Cc1ccc(Br)c(F)c1 | 206 | – |
| COc1ccc(OCC(=O)N[C@@H](Cc2ccccc2)C(=O)N(C)N(C#N)Cc2ccc(Cl)cc2)cc1 | 1230 | – |
| CN(C(=O)[C@@H](NC(=O)[C@@H](NC(=O)c1cccs1)C(C)(C)C)C1CCCCC1)N(C#N)Cc1cccc(Cl)c1F | – | inhibition [2]: 21% |
| CN(C(=O)[C@H](Cc1ccccc1F)NC(=O)[C@@H](NC(=O)c1cccs1)C(C)(C)C)N(C#N)Cc1cccc(Cl)c1F | 19 | Ki (Procathepsin L): 49.6 nM |
| CN(C(=O)[C@H](Cc1ccccc1)NC(=O)OCc1ccccc1)N(C#N)Cc1ccccc1Cl | 149 | – |
| CN(C(=O)[C@H](Cc1ccccc1)NC(=O)C1(NC(=O)c2cccs2)CC1)N(C#N)Cc1ccc(Cl)cc1 | 566 | – |
| CN(C(=O)[C@H](Cc1ccccc1)NC(=O)OCc1ccccc1)N(C#N)Cc1ccccc1F | 137 | – |
| COc1cccc(CN(C#N)N(C)C(=O)[C@H](Cc2ccccc2)NC(=O)OCc2ccccc2)c1F | 118 | – |
| CN(C(=O)[C@H](Cc1ccccc1)NC(=O)[C@@H](NC(=O)c1ccc(-c2cccs2)s1)C(C)(C)C)N(C#N)Cc1ccc(Cl)cc1 | 534 | – |
| CN(C(=O)[C@H](Cc1ccccc1)NC(=O)OCc1ccccc1)N(C#N)Cc1ccc(Br)cc1 | 200 | – |
| CN1C(=O)[C@H](Cc2ccccc2)NC(=O)COCCOc2ccc(F)cc2CN1C#N | 226 | – |
| CN(C(=O)[C@H](Cc1ccccc1)NC(=O)OCc1ccccc1)N(C#N)Cc1ccc(Br)cc1Cl | 143 | – |
| CN(C(=O)[C@H](Cc1ccccc1)NC(=O)C1(Oc2ccc(Cl)cc2Cl)CCC1)N(C#N)Cc1ccc(Cl)cc1 | – | inhibition [2]: 8% |
| CN1C(=O)[C@H](Cc2ccccc2)N(C(=O)COc2ccc(Cl)cc2Cl)CCCCOc2ccc(F)cc2CN1C#N | 42 | – |
| CN(C(=O)[C@H](Cc1ccccc1)NC(=O)[C@@H](NC(=O)C1(F)CC1)C(C)(C)C)N(C#N)Cc1ccc(Cl)cc1 | 50 | – |
